Reference: ChEMBL document CHEMBL3885861, “Open TG-GATES”

Organism: Rattus norvegicus
Assay: Open TG-GATES - Regimen: Single
Format: toxicity, organism-based, Sprague-Dawley
Set-up: regimen Single, gender Male, age 6 weeks
Details: in vivo, iv, route intravenous injection; for LIVER: tissue Liver; for A/G / ALP / ALT / AST / BUN / CRE / Ca / Cl / DBIL / GLC / IP / K / LDH / Na / PL / RALB / TBIL / TC / TG / TP / gamma-GTP: tissue Plasma; for APTT / Bas / Eos / Fbg / Hb / Ht / Lym / MCH / MCHC / MCV / Mono / Neu / PT / Plat / RBC / Ret / WBC: tissue Blood; for KIDNEY_L / KIDNEY_R / KIDNEY_TOTAL: tissue Kidney
[1] = 2 mg/kg, 3 h, dose level Middle
[2] = 2 mg/kg, 6 h, dose level Middle

Which results are given for `C[C@@H]1[C@H](O)[C@@H](C)/C=C/C=C/C=C/C=C/C=C/C=C/C=C/[C@H](O[C@@H]2O[C@H](C)[C@@H](O)[C@H](N)[C@@H]2O)C[C@@H]2O[C@](O)(C[C@@H](O)C[C@@H](O)[C@H](O)CC[C@@H](O)C[C@@H](O)CC(=O)O[C@H]1C)C[C@H](O)[C@H]2C(=O)O` [AMPHOTERICIN B]?
LIVER (1 mg/kg, 9 h, dose level Low): 8.4 g; A/G (1 mg/kg, 9 h, dose level Low): 0.8; ALP (1 mg/kg, 9 h, dose level Low): 1344.2 IU/L; ALT (1 mg/kg, 9 h, dose level Low): 33 IU/L; AST (1 mg/kg, 9 h, dose level Low): 85 IU/L; BUN (1 mg/kg, 9 h, dose level Low): 16.6 mg/dL; CRE (1 mg/kg, 9 h, dose level Low): 0.1 mg/dL; Ca (1 mg/kg, 9 h, dose level Low): 10.6 mg/dL; Cl (1 mg/kg, 9 h, dose level Low): 106.6 meq/L; DBIL (1 mg/kg, 9 h, dose level Low): 0.012 mg/dL; GLC (1 mg/kg, 9 h, dose level Low): 161.4 mg/dL; IP (1 mg/kg, 9 h, dose level Low): 10.2 mg/dL; K (1 mg/kg, 9 h, dose level Low): 3.8 meq/L; LDH (1 mg/kg, 9 h, dose level Low): 53.6 IU/L; Na (1 mg/kg, 9 h, dose level Low): 142.8 meq/L; PL (1 mg/kg, 9 h, dose level Low): 122.8 mg/dL; RALB (1 mg/kg, 9 h, dose level Low): 2.5 g/dL; TBIL (1 mg/kg, 9 h, dose level Low): 0.07 mg/dL; TC (1 mg/kg, 9 h, dose level Low): 75.8 mg/dL; TG (1 mg/kg, 9 h, dose level Low): 31.4 mg/dL; TP (1 mg/kg, 9 h, dose level Low): 5.6 g/dL; gamma-GTP (1 mg/kg, 9 h, dose level Low): 1.6 IU/L; TERMINAL_BW (1 mg/kg, 24 h, dose level Low): 224.5 g; APTT (1 mg/kg, 24 h, dose level Low): 14.8 s; Bas (1 mg/kg, 24 h, dose level Low): 0%; Eos (1 mg/kg, 24 h, dose level Low): 1%; Fbg (1 mg/kg, 24 h, dose level Low): 286.6 mg/dL; Hb (1 mg/kg, 24 h, dose level Low): 13.3 g/dL; Ht (1 mg/kg, 24 h, dose level Low): 39.7%; Lym (1 mg/kg, 24 h, dose level Low): 79.8%; MCH (1 mg/kg, 24 h, dose level Low): 21.2 pg; MCHC (1 mg/kg, 24 h, dose level Low): 33.6%; MCV (1 mg/kg, 24 h, dose level Low): 63.1 fL; Mono (1 mg/kg, 24 h, dose level Low): 2.2%; Neu (1 mg/kg, 24 h, dose level Low): 16.6%; PT (1 mg/kg, 24 h, dose level Low): 12 s; Plat (1 mg/kg, 24 h, dose level Low): 135.9 x10_4/uL; RBC (1 mg/kg, 24 h, dose level Low): 628.6 x10_4/ul; Ret (1 mg/kg, 24 h, dose level Low): 7.1%; WBC (1 mg/kg, 24 h, dose level Low): 100.8 x10_2/uL; KIDNEY_L (1 mg/kg, 24 h, dose level Low): 1 g; KIDNEY_R (1 mg/kg, 24 h, dose level Low): 1 g; KIDNEY_TOTAL (1 mg/kg, 24 h, dose level Low): 1.9 g; LIVER (1 mg/kg, 24 h, dose level Low): 10.5 g; A/G (1 mg/kg, 24 h, dose level Low): 0.8; ALP (1 mg/kg, 24 h, dose level Low): 1710.6 IU/L; ALT (1 mg/kg, 24 h, dose level Low): 39.8 IU/L; AST (1 mg/kg, 24 h, dose level Low): 67.8 IU/L; BUN (1 mg/kg, 24 h, dose level Low): 17.2 mg/dL; CRE (1 mg/kg, 24 h, dose level Low): 0.2 mg/dL; Ca (1 mg/kg, 24 h, dose level Low): 11 mg/dL; Cl (1 mg/kg, 24 h, dose level Low): 105.6 meq/L; DBIL (1 mg/kg, 24 h, dose level Low): 0.02 mg/dL; GLC (1 mg/kg, 24 h, dose level Low): 161.8 mg/dL; IP (1 mg/kg, 24 h, dose level Low): 8.2 mg/dL; K (1 mg/kg, 24 h, dose level Low): 3.9 meq/L; LDH (1 mg/kg, 24 h, dose level Low): 50.4 IU/L; Na (1 mg/kg, 24 h, dose level Low): 144 meq/L; PL (1 mg/kg, 24 h, dose level Low): 143.8 mg/dL; RALB (1 mg/kg, 24 h, dose level Low): 2.7 g/dL; TBIL (1 mg/kg, 24 h, dose level Low): 0.056 mg/dL; TC (1 mg/kg, 24 h, dose level Low): 79.4 mg/dL; TG (1 mg/kg, 24 h, dose level Low): 92.2 mg/dL; TP (1 mg/kg, 24 h, dose level Low): 5.8 g/dL; gamma-GTP (1 mg/kg, 24 h, dose level Low): 1.8 IU/L; TERMINAL_BW [1]: 220.8 g; APTT [1]: 17.1 s; Bas [1]: 0%; Eos [1]: 1%; Fbg [1]: 283 mg/dL; Hb [1]: 13.7 g/dL; Ht [1]: 38.4%; Lym [1]: 69%; MCH [1]: 20.9 pg; MCHC [1]: 35.8%; MCV [1]: 58.4 fL; Mono [1]: 4%; Neu [1]: 25%; PT [1]: 12.6 s; Plat [1]: 117.6 x10_4/uL; RBC [1]: 657 x10_4/ul; Ret [1]: 6.8%; WBC [1]: 144 x10_2/uL; KIDNEY_L [1]: 1 g; KIDNEY_R [1]: 0.9 g; KIDNEY_TOTAL [1]: 1.9 g; LIVER [1]: 10.3 g; A/G [1]: 0.8; ALP [1]: 1456 IU/L; ALT [1]: 41 IU/L; AST [1]: 72 IU/L; BUN [1]: 31 mg/dL; CRE [1]: 0.2 mg/dL; Ca [1]: 11 mg/dL; Cl [1]: 106 meq/L; DBIL [1]: 0.01 mg/dL; GLC [1]: 186 mg/dL; IP [1]: 10.5 mg/dL; K [1]: 4.4 meq/L; LDH [1]: 71 IU/L; Na [1]: 141 meq/L; PL [1]: 134 mg/dL; RALB [1]: 2.5 g/dL; TBIL [1]: 0.07 mg/dL; TC [1]: 78 mg/dL; TG [1]: 41 mg/dL; TP [1]: 5.5 g/dL; gamma-GTP [1]: 2 IU/L; TERMINAL_BW [2]: 211.7 g; APTT [2]: 15.8 s; Bas [2]: 0.2%; Eos [2]: 0%; Fbg [2]: 236 mg/dL; Hb [2]: 14.3 g/dL; Ht [2]: 41.1%; Lym [2]: 54.8%; MCH [2]: 21.2 pg; MCHC [2]: 35%; MCV [2]: 60.7 fL; Mono [2]: 3.2%; Neu [2]: 40.8%; PT [2]: 12.8 s; Plat [2]: 138.8 x10_4/uL; RBC [2]: 676.8 x10_4/ul; Ret [2]: 8.1%; WBC [2]: 102.6 x10_2/uL; KIDNEY_L [2]: 1 g; KIDNEY_R [2]: 1 g; KIDNEY_TOTAL [2]: 2.1 g; LIVER [2]: 9.1 g; A/G [2]: 0.9; ALP [2]: 1566.8 IU/L; ALT [2]: 197 IU/L; AST [2]: 407 IU/L; BUN [2]: 43.8 mg/dL; CRE [2]: 0.4 mg/dL; Ca [2]: 11 mg/dL; Cl [2]: 107 meq/L; DBIL [2]: 0.0175 mg/dL; GLC [2]: 196.8 mg/dL
